Results as given in patent publication US20220233602A1, “GENERATION OF NEURAL STEM CELL LINES DERIVED FROM HUMAN PLURIPOTENT STEM CELLS” (Novo Nordisk A/S, priority 2019, published 2022).
“Also recorded” adds a separate entry of the source. Read-outs that look alike come from different tables or passages of the source.

Legend:
hESC [1] = assay: Differentiation protocol for NECS and rosette formation (brightfield, NES/ZO1 staining); format: cell-based, human; settings: for neural rosette formation, RepSox compared to GW788388: hESCs treated, NES and ZO1 staining (FIG. 6); for morphology of NECS: suspension culture, brightfield (FIG. 3)
Source text: As an example, one optimal condition was:

hESC [2] = settings: for Cell death: 3 = low number of pyknotic nuclei; for Rosette: 3 = high number of neural rosettes; for Thickness Epithelium: thicker columnar epithelium of the neural rosette; for Final Score: sum of the parameter scores; for No Side Population (OTX2 Neg): score by OTX2 staining: 3 = no detection of OTX2 negative cells, evaluated only in conditions without NES negative cells
Procedure: The experimental protocol used for neural induction of hESC and subsequent generation and NSC line establishment can roughly be divided in three main stages—Neuroectoderm induction and NECS formation; NECS plating and rosette formation and finally NSC line establishment by replating the cells in expansion media.
50-90% confluent hESC were washed with PBS^−/− and dissociated from monolayer culture with TrypLE™ Select (Gibco) at 37° C. for approximately 5 minutes to obtain single-cell suspension. The single-cell suspension of hESCs was resuspended in NutriStem® supplemented with 10 μM ROCKi (Y-27632) and as standard 1 mL with cell densities of 1×10^5-2×10^5 cells per mL was seeded into one single well (around 3.5 cm^2) of a 12-well plates (Day 0).
At day 1, around 50% of the medium was exchanged with NECS media consisting of DMEM/F12 GlutaMAX™ supplement (Gibco™) supplemented with 20 U/mL Penicillin-streptomycin, 1% N-2 Supplement (Gibco™) and GW788388 or RepSox in different concentrations, without ROCKi. To initiate rotary NECS formation, plates were from day 1-6 placed on a Multi Bio 3D Mini-shaker (BioSan) at different speeds, timeslots, levels and angle. As an example, one optimal condition was:
The NECS media was exchanged everyday by removing half of the media and adding fresh medium. […] After 6 days in dynamic conditions all NECS were collected and plated in 2D on 48-well plates, laminin coated. For coating, 1:50 natural mouse laminin (L2020-1MG, Sigma-Aldrich, 1 mg/ml) was performing fine, but the type of laminin can be also extended to LN-521 or LN-511 (BioLamina). From day 7 to day 10, now in attachment in 2D, all media was removed, and cells were re-feed with fresh NECS media. An example of the different steps can be shown in FIG. 4, with images after Day 3 (dynamic suspension), Day 8 (neural rosettes in 2D) and Day 10 (before single cell dissociation).
The parameters measured were cell death, rosette formation, a monolayer formation in 2D, thickness of the epithelium formed in the rosette structure, and the absence of side population (all cells being NES and OTX2 positive), i.e. purity of the cell population
Cell death: Monitored by DAPI (4′,6-diamidino-2-phenylindole) staining. Pyknosis, or karyopyknosis, is the irreversible condensation of chromatin in the nucleus of a cell undergoing necrosis or apoptosis. After visual inspection under the fluorescent microscope, a score of 0 represent high number of pyknotic nuclei and a score of 3 a low number of pyknotic nuclei.
Rosette numbers: Monitored by DAPI, ZO1 and NES stainings. After visual inspection under the fluorescent microscope, a score of 0 represent low number of neural rosettes nuclei and a score of 3 a high number of rosettes.
Monolayer formation: Monitored by brightfield and DAPI staining. After visual inspection under the microscope, a score of 3 represent a flat monolayer of cells after NECS attachment.
Thickness of the rosette columnar epithelium: Monitored by DAPI staining. After visual inspection under the fluorescent microscope, a score of 3 represent a broader, thicker columnar epithelium of the neural rosette.
Side population: Monitored by specific stainings of NES and OTX2. After visual inspection under the fluorescent microscope, a score of […] represents no detection of NES negative cells. Only in conditions without NES negative cells, the OTX2 population was evaluated. In those cases, a score of 3 represents no detection of OTX2 negative cells.

[3] = Low concentration (RepSox 0.25 μM, GW788388 0.1 ng/ml, SB525334 0.1 μM), score by DAPI: 0 = high number
[4] = Low concentration (RepSox 0.25 μM, GW788388 0.1 ng/ml, SB525334 0.1 μM), score: 0 = low number
[5] = Low concentration (RepSox 0.25 μM, GW788388 0.1 ng/ml, SB525334 0.1 μM), score: 3 = broader
[6] = Low concentration (RepSox 0.25 μM, GW788388 0.1 ng/ml, SB525334 0.1 μM), score: 3 = flat monolayer of cells after NECS attachment
[7] = Low concentration (RepSox 0.25 μM, GW788388 0.1 ng/ml, SB525334 0.1 μM), score: 6 = no detection of NES negative cells
[8] = Low concentration (RepSox 0.25 μM, GW788388 0.1 ng/ml, SB525334 0.1 μM)
[9] = score by DAPI staining: 0 = high number, RepSox 25 μM, LY2157299 10 μM, TEW-7197 10 μM, GW788388 10 ng/ml, SB525334 10 μM, SB431542 10 μM, SB431542+LDN 10 μM+10 μM, LY2109761 2 μM
[10] = score by DAPI, ZO1, NES staining: 0 = low number, RepSox 25 μM, LY2157299 10 μM, TEW-7197 10 μM, GW788388 10 ng/ml, SB525334 10 μM, SB431542 10 μM, SB431542+LDN 10 μM+10 μM, LY2109761 2 μM
[11] = score by DAPI: 3 = broader, RepSox 25 μM, LY2157299 10 μM, TEW-7197 10 μM, GW788388 10 ng/ml, SB525334 10 μM, SB431542 10 μM, SB431542+LDN 10 μM+10 μM, LY2109761 2 μM
[12] = score by NES staining: 6 = no detection of NES negative cells, RepSox 25 μM, LY2157299 10 μM, TEW-7197 10 μM, GW788388 10 ng/ml, SB525334 10 μM, SB431542 10 μM, SB431542+LDN 10 μM+10 μM, LY2109761 2 μM
[13] = score by brightfield and DAPI: 3 = flat monolayer of cells after NECS attachment, RepSox 25 μM, LY2157299 10 μM, TEW-7197 10 μM, GW788388 10 ng/ml, SB525334 10 μM, SB431542 10 μM, SB431542+LDN 10 μM+10 μM, LY2109761 2 μM
[14] = RepSox 25 μM, LY2157299 10 μM, TEW-7197 10 μM, GW788388 10 ng/ml, SB525334 10 μM, SB431542 10 μM, SB431542+LDN 10 μM+10 μM, LY2109761 2 μM
[15] = RepSox 25 μM, LY2157299 10 μM, TEW-7197 10 μM, SB431542+LDN 10 μM+10 μM, LY2109761 2 μM

Row | Structure (SMILES) | neural rosette formation, RepSox compared to GW788388 (hESC [1]) | morphology of NECS (hESC [1]) | Cell death (hESC [2]; [3]) | Rosette (hESC [2]; [4]) | Thickness Epithelium (hESC [2]; [5]) | Monolayer formation (hESC [2]; [6]) | No Side Population (NES Neg) (hESC [2]; [7]) | Final Score (hESC [2]; [8]) | Cell death (hESC [2]; [9]) | Rosette (hESC [2]; [10]) | Thickness Epithelium (hESC [2]; [11]) | No Side Population (NES Neg) (hESC [2]; [12]) | Monolayer formation (hESC [2]; [13]) | Final Score (hESC [2]; [14]) | No Side Population (OTX2 Neg) (hESC [2]; [15]) | homogeneous population of neural rosettes with NES positive cells and ZO1 in the center of each rosette (hESC [1]; RepSox 25 and 50 μM (FIGS. 7 and 8)) | homogeneous population of neural rosettes with NES positive cells and ZO1 in the center of each rosette (hESC [1]; lower concentrations of RepSox (0.25 μM, 2.5 μM; FIGS. 7 and 8))
1 | O=C(NC1CCOCC1)c1ccc(-c2cc(-c3cn[nH]c3-c3ccccn3)ccn2)cc1 [GW788388, N-(oxan-4-yl)-4-[4-(5-pyridin-2-yl-1H-pyrazol-4-yl)pyridin-2-yl]benzamide] | only few rosettes are observed | darker and denser core | 2 | 2 | 2 | 3 | 0 | 9 | 3 | 3 | 3 | 0 | 3 | 12 | – | – | –
2 | c1ccc(-c2nn3c(c2-c2ccnc4cc(OCCN5CCOCC5)ccc24)CCC3)nc1 [LY2109761] | – | – | – | – | – | – | – | – | 0 | 0 | 0 | 6 | 0 | 9 | 3 | – | –
3 | Cc1cccc(-c2nn3c(c2-c2ccnc4ccc(C(N)=O)cc24)CCC3)n1 [LY2157299, 4-[2-(6-methylpyridin-2-yl)-5,6-dihydro-4H-pyrrolo[1,2-b]pyrazol-3-yl]quinoline-6-carboxamide] | – | – | – | – | – | – | – | – | 3 | 3 | 3 | 6 | 2 | 17 | 0 | – | –
4 | Cc1cccc(-c2n[nH]cc2-c2ccc3ncccc3n2)n1 [RepSox, 2-(3-(6-Methylpyridine-2-yl)-1H-pyrazol-4-yl)-1,5-naphthyridine] | superior; also recorded: multiple neural rosettes are observed | more transparent NECS; also recorded: bright cavities | – | 3 | 3 | 3 | 0 | 12 | – | 3 | 2 | 6 | 3 | 20 | 3 | optimal to obtain an homogeneous population of neural rosettes | less clear effect
5 | NC(=O)c1ccc(-c2nc(-c3ccc4c(c3)OCO4)c(-c3ccccn3)[nH]2)cc1 [SB431542, 4-[4-(1,3-benzodioxol-5-yl)-5-(2-pyridinyl)-1H-imidazol-2-yl]benzamide] | – | – | – | – | – | – | – | – | – | 3 | 2 | 0 | 2 | 10 | – | – | –
6 | Cc1cccc(-c2[nH]c(C(C)(C)C)nc2-c2ccc3nccnc3c2)n1 [SB525334] | – | – | 2 | 3 | 3 | 2 | 0 | 10 | 0 | 3 | 2 | 4 | 2 | 11 | – | – | –
7 | Cc1cccc(-c2[nH]c(CNc3ccccc3F)nc2-c2ccc3ncnn3c2)n1 [TEW-7197, 2-fluoro-N[[5-(6-methylpyridin-2-yl)-4-([1,2,4]triazolo[1,5-a]pyridin-6-yl)-1H-imidazol-2-yl]methyl]aniline] | – | – | – | – | – | – | – | – | – | 2 | 2 | 6 | 2 | 15 | 3 | – | –
